According to patent US20230167088A1, “1-PYRAZINYLPYRAZOLYL-3-OXYALKYL ACIDS AND THEIR DERIVATIVES, AND THEIR USE FOR CONTROL OF UNDESIRED PLANT GROWTH” (BAYER AKTIENGESELLSCHAFT, priority 2020, published 2023):

Legend:
POAAN [1] = experiment: Herbicidal pre-emergence action 2b (doubly sown, 1280 g/ha); format: in vivo, Poa annua; settings: doubly sown pots, dosage 1280 g/ha, visual scoring after about 3 weeks
Text: (§1) [table] b) Seeds of mono- and dicotyledonous weed plants are placed in plastic pots in sandy loam soil (doubly sown with one species each of mono- or dicotyledonous weed plants per pot) and covered with soil. The compounds of the invention, formulated in the form of wettable powders (WP) or as emulsion concentrates (EC), are then applied onto the surface of the covering soil as aqueous suspension or emulsion with addition of 0.5% additive at a water application rate equivalent to 600 litres per hectare. After the treatment, the pots are placed in a greenhouse and kept under good growth conditions for the trial plants. After about 3 weeks, the effect of the preparations is scored visually in comparison with untreated controls as percentages. For example, 100% activity=the plants have died, 0% activity=like control plants. Tables B16 to B21 below show the effects of selected compounds of the general formula (I) according to Tables 1 and 2 on various harmful plants and at an application rate corresponding to 1280 g/ha, which were obtained by the experimental procedure mentioned above.

STEME [2] = experiment: Herbicidal post-emergence action 1b (twin sowing, 1280 g/ha); format: in vivo, Stellaria media; settings: dosage 1280 g/ha, visual rating about 3 weeks after treatment
Protocol: (§2) [table] b) Seeds of mono- and dicotyledonous weed plants are placed in plastic pots in sandy loam soil (twin sowing with one species each of mono- or dicotyledonous weed plants per pot), covered with soil and cultivated in a greenhouse under controlled growth conditions. 2 to 3 weeks after sowing, the test plants are treated at the one-leaf stage. The compounds of the invention, formulated in the form of wettable powders (WP) or as emulsion concentrates (EC), are applied to the green parts of the plants as aqueous suspension or emulsion with addition of 0.5% additive at a water application rate equivalent to 600 litres per hectare. After the test plants have been kept in the greenhouse under optimum growth conditions for about 3 weeks, the activity of the preparations is rated visually in comparison to untreated controls. For example, 100% activity=the plants have died, 0% activity=like control plants. Tables A16 to A21 below show the effects of selected compounds of the general formula (I) according to Tables 1 and 2 on various harmful plants and at an application rate corresponding to 1280 g/ha, which were obtained by the experimental procedure mentioned above.

POAAN [3] = experiment: as above; format: in vivo, Poa annua; settings: dosage 1280 g/ha, visual rating about 3 weeks after treatment
Protocol: as §2

AMARE [4] = experiment: Herbicidal pre-emergence action 2b (doubly sown, 1280 g/ha); format: in vivo, Amaranthus retroflexus; settings: doubly sown pots, dosage 1280 g/ha, visual scoring after about 3 weeks
Text: as §1

ALOMY [5] = experiment: Herbicidal post-emergence action 1a (greenhouse pots, visual rating); format: in vivo, Alopecurus myosuroides; settings: Dosage 320 g/ha; rated visually about 3 weeks after treatment; 100% = plants have died, 0% = like control plants
Protocol: (§3) [table] a) Seeds of monocotyledonous and dicotyledonous weeds and crop plants are placed in sandy loam in plastic or organic plant pots, covered with soil and cultivated in a greenhouse under controlled growth conditions. 2 to 3 weeks after sowing, the test plants are treated at the one-leaf stage. The compounds of the invention, formulated in the form of wettable powders (WP) or as emulsion concentrates (EC), are then sprayed onto the green parts of the plants as aqueous suspension or emulsion with addition of 0.5% additive at a water application rate of 600 1/ha (converted). After the test plants have been kept in the greenhouse under optimum growth conditions for about 3 weeks, the activity of the preparations is rated visually in comparison to untreated controls. For example, 100% activity=the plants have died, 0% activity=like control plants. Tables A1 to A15 below show the effects of selected compounds of the general formula (I) according to Tables 1 and 2 on various harmful plants and an application rate corresponding to 320 g/ha and/or 80 g/ha, which were obtained by the experimental procedure mentioned above.

AMARE [6] = experiment: as above; format: in vivo, Amaranthus retroflexus; settings: dosage 320 g/ha, visual rating about 3 weeks after treatment
Protocol: as §3

VIOTR [7] = experiment: Herbicidal pre-emergence action 2a (greenhouse pots, visual scoring); format: in vivo, Viola tricolor; settings: dosage 320 g/ha, visual scoring after about 3 weeks vs untreated controls
Text: (§4) [table] a) Seeds of monocotyledonous and dicotyledonous weed plants and crop plants are placed in plastic or organic plant pots and covered with soil. The compounds of the invention, formulated in the form of wettable powders (WP) or as emulsion concentrates (EC), are then applied onto the surface of the covering soil as aqueous suspension or emulsion with addition of 0.5% additive at a water application rate of 600 1/ha (converted). After the treatment, the pots are placed in a greenhouse and kept under good growth conditions for the trial plants. After about 3 weeks, the effect of the preparations is scored visually in comparison with untreated controls as percentages. For example, 100% activity=the plants have died, 0% activity=like control plants. Tables B1 to B15 below show the effects of selected compounds of the general formula (I) according to Tables 1 and 2 on various harmful plants and an application rate corresponding to 320 g/ha and/or 80 g/ha, which were obtained by the experimental procedure mentioned above.

MATIN [8] = experiment: Herbicidal pre-emergence action 2b (doubly sown, 1280 g/ha); format: in vivo, Matricaria inodora; settings: doubly sown pots, dosage 1280 g/ha, visual scoring after about 3 weeks
Text: as §1

ALOMY [9] = experiment: Herbicidal pre-emergence action 2a (greenhouse pots, visual scoring); format: in vivo, Alopecurus myosuroides; settings: dosage 320 g/ha, visual scoring after about 3 weeks
Text: as §4

VERPE = experiment: as above; format: in vivo, Veronica persica; settings: dosage 320 g/ha, visual scoring after about 3 weeks vs untreated controls
Text: as §4

DIGSA = experiment: Herbicidal pre-emergence action 2b (doubly sown, 1280 g/ha); format: in vivo, Digitaria sanguinalis; settings: doubly sown pots, dosage 1280 g/ha, visual scoring after about 3 weeks
Text: as §1

VIOTR [10] = experiment: Herbicidal post-emergence action 1a (greenhouse pots, visual rating); format: in vivo, Viola tricolor; settings: dosage 320 g/ha, visual rating about 3 weeks after treatment
Protocol: as §3

ECHCG = experiment: Herbicidal pre-emergence action 2b (doubly sown, 1280 g/ha); format: in vivo, Echinochloa crus-galli; settings: doubly sown pots, dosage 1280 g/ha, visual scoring after about 3 weeks
Text: as §1

STEME [11] = experiment: as above; format: in vivo, Stellaria media; settings: doubly sown pots, dosage 1280 g/ha, visual scoring after about 3 weeks
Text: as §1

MATIN [12] = experiment: Herbicidal post-emergence action 1b (twin sowing, 1280 g/ha); format: in vivo, Matricaria inodora; settings: dosage 1280 g/ha, visual rating about 3 weeks after treatment
Protocol: as §2

POLCO = experiment: Herbicidal pre-emergence action 2a (greenhouse pots, visual scoring); format: in vivo, Polygonum convolvulus; settings: dosage 320 g/ha, visual scoring after about 3 weeks vs untreated controls
Text: as §4

LOLRI = experiment: as above; format: in vivo, Lolium rigidum; settings: dosage 320 g/ha, visual scoring after about 3 weeks vs untreated controls
Text: as §4

AVEFA = experiment: as above; format: in vivo, Avena fatua; settings: dosage 320 g/ha, visual scoring after about 3 weeks
Text: as §4

AMARE [13] = experiment: as above; format: in vivo, Amaranthus retroflexus; settings: dosage 320 g/ha, visual scoring after about 3 weeks vs untreated controls
Text: as §4

COC(=O)[C@@H](C)Oc1nn(-c2cnccn2)c(-c2ccc(F)nc2)c1C#N [Example I-25]
Pre-emergence action at 1280 g/ha against POAAN in % (POAAN [1]): 100% | Post-emergence action at 1280 g/ha against STEME in % (STEME [2]): 90% | Post-emergence action at 1280 g/ha against POAAN in % (POAAN [3]): 90% | Pre-emergence action at 1280 g/ha against AMARE in % (AMARE [4]): 100% | Post-emergence action against ALOMY in % (ALOMY [5]): 80% | Post-emergence action against AMARE in % (AMARE [6]): 80% | Pre-emergence action against VIOTR in % (VIOTR [7]): 90% | Pre-emergence action at 1280 g/ha against MATIN in % (MATIN [8]): 90% | Pre-emergence action against ALOMY in % (ALOMY [9]): 80% | Pre-emergence action against VERPE in % (VERPE): 90% | Pre-emergence action at 1280 g/ha against DIGSA in % (DIGSA): 100% | Post-emergence action against VIOTR in % (VIOTR [10]): 90% | Pre-emergence action at 1280 g/ha against ECHCG in % (ECHCG): 90%

O=C(O)COc1nn(-c2cnccn2)c(-c2ccc(F)c(F)c2)c1Br [Example I-41]
Pre-emergence action at 1280 g/ha against STEME in % (STEME [11]): 100% | Pre-emergence action at 1280 g/ha against POAAN in % (POAAN [1]): 100% | Post-emergence action at 1280 g/ha against MATIN in % (MATIN [12]): 90% | Post-emergence action at 1280 g/ha against POAAN in % (POAAN [3]): 100% | Pre-emergence action at 1280 g/ha against AMARE in % (AMARE [4]): 100% | Pre-emergence action at 1280 g/ha against MATIN in % (MATIN [8]): 100% | Pre-emergence action at 1280 g/ha against DIGSA in % (DIGSA): 100% | Pre-emergence action at 1280 g/ha against ECHCG in % (ECHCG): 100%

COC(=O)[C@@H](C)Oc1nn(-c2cnccn2)c(-c2cnc(F)c(F)c2)c1Br [Example I-43]
Pre-emergence action at 1280 g/ha against STEME in % (STEME [11]): 100% | Pre-emergence action at 1280 g/ha against POAAN in % (POAAN [1]): 100% | Post-emergence action at 1280 g/ha against MATIN in % (MATIN [12]): 100% | Post-emergence action at 1280 g/ha against STEME in % (STEME [2]): 90% | Post-emergence action at 1280 g/ha against POAAN in % (POAAN [3]): 100% | Pre-emergence action at 1280 g/ha against AMARE in % (AMARE [4]): 100% | Pre-emergence action at 1280 g/ha against MATIN in % (MATIN [8]): 90% | Pre-emergence action at 1280 g/ha against DIGSA in % (DIGSA): 100%

CCOC(=O)COc1nn(-c2cnccn2)c(-c2ccc(F)nc2)c1[N+](=O)[O-] [Example I-50]
Pre-emergence action at 1280 g/ha against STEME in % (STEME [11]): 90% | Pre-emergence action at 1280 g/ha against POAAN in % (POAAN [1]): 100% | Post-emergence action at 1280 g/ha against MATIN in % (MATIN [12]): 90% | Post-emergence action at 1280 g/ha against STEME in % (STEME [2]): 90% | Post-emergence action at 1280 g/ha against POAAN in % (POAAN [3]): 90% | Pre-emergence action at 1280 g/ha against AMARE in % (AMARE [4]): 100% | Pre-emergence action at 1280 g/ha against MATIN in % (MATIN [8]): 90% | Pre-emergence action at 1280 g/ha against DIGSA in % (DIGSA): 100%

C[C@@H](Oc1nn(-c2nccnc2Cl)c(-c2ccc(F)nc2)c1Br)C(=O)O [Example I-75]
Pre-emergence action against POLCO in % (POLCO): 80% | Pre-emergence action against LOLRI in % (LOLRI): 100% | Pre-emergence action against AVEFA in % (AVEFA): 90% | Pre-emergence action against AMARE in % (AMARE [13]): 90% | Pre-emergence action against VIOTR in % (VIOTR [7]): 80% | Pre-emergence action against ALOMY in % (ALOMY [9]): 100%
